Our source for the IC50 values is patent US20230219963A1, “PYRROLO[2,3-D]PYRIMIDINE DERIVATIVES” (Pfizer Inc., priority 2020, published 2023).

One experiment deals with IL-4 induced pSTAT6. The experiment can be described thus: IL-4-induced pSTAT6 in human keratinocytes. As to conditions: Keratinocyte, JAK1/JAK2, read-out: IL-4 induced pSTAT6, cellular potency IC50. Type of experiment: cell-based. The protocol:
(§1) Human whole blood was collected from healthy donors via vein puncture into Vacutainer collection tubes containing sodium heparin in accordance with Pfizer protocols (Protocol No. GOHW RDP-01) approved by the Shulman Institutional Review Board. Blood was warmed to 37° C. priorto use. Human whole blood was aliquoted (90 μL/well) in 96-well, deep-well, V-bottom plates and treated with compounds (5 μL/well) at different concentrations up to 60 μM (0.2% DMSO final) at 37° C. for 60 minutes. This was followed by a challenge with IFNα (5000 U/mL), IFNγ (100 ng/mL), IL-6 (50 ng/mL), IL-10 (30 ng/mL), IL-12 (30 ng/mL), IL-15 (30 ng/mL), IL-21 (50 ng/mL), IL-23 (25 ng/mL), IL-27 (1000 ng/mL), EPO (2 U/mL), TSLP (50 ng/mL) or PBS and incubated for 15 minutes. Anti-cell surface antibodies were added 15 minutes prior to cytokine stimulation; anti-CD3-BV421 (0.5 μL/well) to IL-6-treated and TSLP-treated samples and anti-CD14-BV421 (0.5 μL/well) to IFNγ-treated samples. Samples were treated with warm 1×Lyse/Fix buffer (700 μL/well) to terminate activation and further incubated at 37° C. for 20 minutes to lyse red blood cells. Plates were centrifuged at 300×g for 5 minutes, supernatant was aspirated, and cells were washed with 800 μL/well of staining buffer (D-PBS containing 0.1% FBS and 0.01% sodium azide). Washed cell pellets were resuspended in 350 μL/well of prechilled 90% methanol and incubated at 4° C. for 30 minutes. After the removal of 90% methanol, cells were washed once with staining buffer. […]
(§2) After overnight incubation at 4° C., anti-pSTAT stained samples were transferred into 96-well polypropylene U-bottom plates and flow cytometric analysis was performed on a LSR Fortessa™ equipped with a HTS plate loader. […] Background fluorescence was defined using unstimulated cells and a gate was placed at the foot of the peak to include ˜0.5% gated population. […]

The test system of a further experiment is TSLP induced pSTAT5. The experiment can be described thus: TSLP-induced pSTAT5 in human whole blood (CD3+ cells). To be noted: JAK1/JAK2, read-out: TSLP induced pSTAT5, cellular potency IC50. Type of experiment: cell-based. The protocol: as §1, §2
For another experiment, the system named is IL-22 induced pSTAT3. Description: IL-22-induced pSTAT3 in human keratinocytes. As to conditions: Keratinocyte, JAK1/TYK2, read-out: IL-22 induced pSTAT3, cellular potency IC50. Type of experiment: cell-based.
Another experiment deals with EPO induced pSTAT5. Description: EPO-induced pSTAT5 in human whole blood (all events). It counts as cell-based. To be noted: JAK2/JAK2, read-out: EPO induced pSTAT5, cellular potency IC50. How it is done:
as §1, with “buffer. All samples were finally suspended in 150 μL/well of the desired anti-phospho-STAT antibodies at 1:150 dilution in staining buffer; anti-pSTAT1-AF647 in IFNγ treated samples; anti-pSTAT1-AF488 and anti-pSTAT3-AF647 in IL-6-treated samples, anti-pSTAT3-AF647 in IFNα, IL-10, IL-21, IL-23 and IL-27 treated samples, anti-pSTAT4-AF647 in IL-12 treated samples, anti-pSTAT5-AF-647 in EPO, IL-15 and TSLP-treated samples. Human primary keratinocytes were cultured in DermaLife™ medium with supplement kit to expand cell population. Cell passages 2 to 5 were used in the assays. Cells were harvested at ˜80% confluence, suspended in warm DermaLife™ medium, aliquoted (90 μL/well) in 96-well, deep-well, V-bottom plates, and incubated at 37° C. for 30 minutes. Cells were then treated with compounds (0.0003 to 20 μM) for 60 minutes and followed by stimulation with IL-4 (2 ng/mL) or IL-13 (20 ng/mL) at 37° C. for 15 minutes.” for “buffer.”
as §2

Another experiment concerns IL-13 induced pSTAT6. The experiment can be described thus: IL-13-induced pSTAT6 in human keratinocytes. Type of experiment: cell-based. As to conditions: Keratinocyte, JAK1/JAK2, read-out: IL-13 induced pSTAT6, cellular potency IC50. The protocol: as §1, §2
A further experiment concerns IFNa induced pSTAT3. The experiment can be described thus: IFNα-induced pSTAT3 in human whole blood (lymphocytes). Type of experiment: cell-based. To be noted: Lymphocyte, JAK1/TYK2, read-out: IFNa induced pSTAT3, cellular potency IC50. The protocol: as §1, §2
Another experiment addresses JAK1 (Homo sapiens, UniProt P23458). The experiment can be described thus: JAK Caliper Enzyme Assay at 1 mM ATP (JAK1). Type of experiment: biochemical. The protocol:
JAK Caliper Enzyme Assay at 1 mM ATP
Test article was solubilized in dimethyl sulfoxide (DMSO) to a stock concentration of 30 mM. An 11-point half log dilution series was created in DMSO with a top concentration of 600 μM. […] The compound plates were diluted 1 to 60 resulting in a top final assay compound concentration of 10 μM and a 2% DMSO concentration. Test article and assay controls were added to a 384-well plate. Reaction mixtures contained 20 mM HEPES, pH 7.4, 10 mM magnesium chloride, 0.01% bovine serum albumin (BSA), 0.0005% Tween 20, 1 mM ATP and 1 μM peptide substrate. […] The assays were initiated by the addition of 20 nM JAK1, 1 nM JAK2, 1 nM JAK3 or 1 nM TYK2 enzyme and were incubated at room temperature for three hours for JAK1, 60 minutes for JAK2, 75 minutes for JAK3 or 135 minutes for TYK2. Enzyme concentrations and incubation times were optimized for each new enzyme preps and were modified slightly over time to ensure 20%-30% phosphorylation. The assays were stopped with a final concentration of 10 mM EDTA, 0.1% Coating Reagent and 100 mM HEPES, pH=7.4. The assay plates were placed on a Caliper Life Science Lab Chip 3000 (LC3000) instrument, and each well was sampled using appropriate separation conditions to measure the unphosphorylated and phosphorylated peptide.

JAK1, sequence (P23458 whole entry): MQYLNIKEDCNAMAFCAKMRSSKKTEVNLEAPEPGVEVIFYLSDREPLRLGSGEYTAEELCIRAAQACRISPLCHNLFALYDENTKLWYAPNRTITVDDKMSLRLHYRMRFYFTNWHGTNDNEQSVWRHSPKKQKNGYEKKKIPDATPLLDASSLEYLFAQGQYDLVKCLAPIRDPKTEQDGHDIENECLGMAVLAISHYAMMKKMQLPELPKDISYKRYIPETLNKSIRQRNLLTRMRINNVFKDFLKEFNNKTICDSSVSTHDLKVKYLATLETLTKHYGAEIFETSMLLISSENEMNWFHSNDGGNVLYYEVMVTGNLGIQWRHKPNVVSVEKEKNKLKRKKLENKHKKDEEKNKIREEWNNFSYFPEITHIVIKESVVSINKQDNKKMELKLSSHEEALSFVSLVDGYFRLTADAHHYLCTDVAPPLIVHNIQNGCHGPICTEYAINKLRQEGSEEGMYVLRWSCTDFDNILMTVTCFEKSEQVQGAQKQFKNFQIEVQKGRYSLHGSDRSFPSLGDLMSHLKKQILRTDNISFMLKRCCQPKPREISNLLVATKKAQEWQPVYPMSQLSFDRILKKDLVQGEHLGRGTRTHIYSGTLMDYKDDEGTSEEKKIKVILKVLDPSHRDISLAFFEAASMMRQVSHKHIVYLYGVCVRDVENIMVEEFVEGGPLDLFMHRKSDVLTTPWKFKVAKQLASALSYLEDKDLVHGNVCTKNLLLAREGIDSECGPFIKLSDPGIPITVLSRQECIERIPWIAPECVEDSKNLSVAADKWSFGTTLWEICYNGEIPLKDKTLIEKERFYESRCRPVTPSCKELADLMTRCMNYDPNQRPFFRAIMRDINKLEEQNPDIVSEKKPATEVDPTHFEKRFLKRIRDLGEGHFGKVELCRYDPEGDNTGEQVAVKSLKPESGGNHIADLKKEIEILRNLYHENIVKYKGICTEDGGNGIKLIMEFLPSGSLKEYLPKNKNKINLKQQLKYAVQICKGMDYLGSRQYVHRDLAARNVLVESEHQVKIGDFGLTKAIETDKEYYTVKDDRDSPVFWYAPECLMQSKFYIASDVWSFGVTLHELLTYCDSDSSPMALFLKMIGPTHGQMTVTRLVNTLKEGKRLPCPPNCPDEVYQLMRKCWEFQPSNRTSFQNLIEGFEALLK

The IC50 is the concentration at which inhibition is half-maximal. In the case of `C[C@H](O)CS(=O)(=O)N[C@H]1C[C@@H](N(C)c2ncnc3[nH]ccc23)C1` (single isomer, unassigned) [IA (M2)], the concentration for half-maximal inhibition (IC50) in the experiment on IL-4 induced pSTAT6 was determined as 134 nM; with TSLP induced pSTAT5 it was 271 nM; in the experiment with IL-22 induced pSTAT3 it was 198 nM; with EPO induced pSTAT5, 9470 nM; in the experiment with IL-13 induced pSTAT6, 84.1 nM; with IFNa induced pSTAT3 it was 90.5 nM. The same compound registered a 50% inhibitory concentration (IC50) against JAK1 of 17.9 nM.
`C[C@@H](O)CS(=O)(=O)N[C@H]1C[C@@H](N(C)c2ncnc3[nH]ccc23)C1` (single isomer, unassigned) [IC (M3)]: the IC50 with EPO induced pSTAT5 was 18100 nM; in the experiment with IFNa induced pSTAT3, 225 nM; on JAK1, 56.7 nM.
With `CN(c1ncnc2[nH]ccc12)[C@H]1C[C@@H](NS(=O)(=O)CCCO)C1` [IB (M1), 3-Hydroxy-N-(cis-3-(methyl(7H-pyrrolo[2,3-d]pyrimidin-4-yl)amino)cyclobutyl)propane-1-sulfonamide], the IC50 with IL-4 induced pSTAT6 turned out to be 433 nM; in the experiment with TSLP induced pSTAT5 it was 785 nM; with IL-22 induced pSTAT3 it was 703 nM; in the experiment on EPO induced pSTAT5, 9750 nM; with IL-13 induced pSTAT6, 236 nM; in the experiment on IFNa induced pSTAT3, 296 nM. For the same compound, the half-maximal inhibitory concentration (IC50) at JAK1 was 43.4 nM.
